From paper PMC10294644 (Cell, 2020)
Entries after “also recorded” stand apart in the source; their conditions may differ.

Columns and labels:
CSK = CSK (Homo sapiens, UniProt P41240); test: Global quantitative proteomics; type: cell-based; details: MOLT-4 cells, 1 μM, 5 h
CDK17 = CDK17 (Homo sapiens, UniProt Q00537); test: Global quantitative proteomics; type: cell-based; details: MOLT-4 cells, 1 μM, 5 h, relative protein abundance
LIMK2 = LIMK2 (Homo sapiens, UniProt P53671); test: Global quantitative proteomics; type: cell-based; details: MOLT-4 cells, 1 μM, 5 h, relative protein abundance
LIMK2, sequence (P53671 whole entry): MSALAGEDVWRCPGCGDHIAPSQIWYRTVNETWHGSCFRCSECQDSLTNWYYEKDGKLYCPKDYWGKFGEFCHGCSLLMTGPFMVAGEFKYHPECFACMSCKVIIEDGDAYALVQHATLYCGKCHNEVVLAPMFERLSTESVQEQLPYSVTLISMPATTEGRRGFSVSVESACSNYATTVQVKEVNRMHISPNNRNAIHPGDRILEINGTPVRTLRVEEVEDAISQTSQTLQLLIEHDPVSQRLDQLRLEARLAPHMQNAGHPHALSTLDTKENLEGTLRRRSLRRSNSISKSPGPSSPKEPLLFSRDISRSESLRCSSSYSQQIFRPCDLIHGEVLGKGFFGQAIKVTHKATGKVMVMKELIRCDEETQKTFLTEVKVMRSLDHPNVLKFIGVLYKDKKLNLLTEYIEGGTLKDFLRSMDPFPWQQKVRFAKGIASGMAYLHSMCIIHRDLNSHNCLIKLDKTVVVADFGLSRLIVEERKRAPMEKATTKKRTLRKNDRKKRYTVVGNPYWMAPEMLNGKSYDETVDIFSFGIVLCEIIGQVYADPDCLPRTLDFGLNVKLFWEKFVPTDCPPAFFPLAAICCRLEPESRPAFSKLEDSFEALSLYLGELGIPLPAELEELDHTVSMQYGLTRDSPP

GCK [1] = biological target: T1, GCK (Homo sapiens, UniProt Q12851); test: Global quantitative proteomics, degradation of GCK; type: cell-based; details: 1 μM, 5 h
T1 sequence (Q12851 1-820): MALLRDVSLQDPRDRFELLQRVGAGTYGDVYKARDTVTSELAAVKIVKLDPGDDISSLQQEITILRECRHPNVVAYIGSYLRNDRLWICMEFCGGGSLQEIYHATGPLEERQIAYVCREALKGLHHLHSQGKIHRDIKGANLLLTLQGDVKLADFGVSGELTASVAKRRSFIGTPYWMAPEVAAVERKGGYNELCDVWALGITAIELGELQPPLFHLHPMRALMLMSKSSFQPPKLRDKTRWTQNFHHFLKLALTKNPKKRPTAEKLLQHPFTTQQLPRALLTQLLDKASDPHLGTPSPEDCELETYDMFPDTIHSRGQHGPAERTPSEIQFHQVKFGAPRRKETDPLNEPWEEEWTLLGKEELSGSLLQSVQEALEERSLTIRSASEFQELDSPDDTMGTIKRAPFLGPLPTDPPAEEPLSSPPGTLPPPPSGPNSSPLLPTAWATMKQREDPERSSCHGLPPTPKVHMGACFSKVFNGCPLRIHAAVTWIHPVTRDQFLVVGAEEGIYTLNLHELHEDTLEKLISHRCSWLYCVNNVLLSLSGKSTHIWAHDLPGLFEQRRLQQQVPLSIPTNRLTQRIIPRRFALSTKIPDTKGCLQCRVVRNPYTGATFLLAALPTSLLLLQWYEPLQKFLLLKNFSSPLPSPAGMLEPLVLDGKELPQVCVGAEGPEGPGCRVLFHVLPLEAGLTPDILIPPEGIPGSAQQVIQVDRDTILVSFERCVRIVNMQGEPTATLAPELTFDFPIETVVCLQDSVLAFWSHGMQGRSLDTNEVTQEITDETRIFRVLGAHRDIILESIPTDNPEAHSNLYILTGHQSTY

GCK [2] = biological target: T1, GCK; test: KiNativ live cell profiling; type: cell-based; details: CRBN−/− MOLT-4 cells, 1 μM, 5 h
YES1 = YES1 (Homo sapiens, UniProt P07947); type: cell-based; details: HEK293T cells, 1 μM, 5 h
YES1, sequence (P07947 2-543 limits assumed): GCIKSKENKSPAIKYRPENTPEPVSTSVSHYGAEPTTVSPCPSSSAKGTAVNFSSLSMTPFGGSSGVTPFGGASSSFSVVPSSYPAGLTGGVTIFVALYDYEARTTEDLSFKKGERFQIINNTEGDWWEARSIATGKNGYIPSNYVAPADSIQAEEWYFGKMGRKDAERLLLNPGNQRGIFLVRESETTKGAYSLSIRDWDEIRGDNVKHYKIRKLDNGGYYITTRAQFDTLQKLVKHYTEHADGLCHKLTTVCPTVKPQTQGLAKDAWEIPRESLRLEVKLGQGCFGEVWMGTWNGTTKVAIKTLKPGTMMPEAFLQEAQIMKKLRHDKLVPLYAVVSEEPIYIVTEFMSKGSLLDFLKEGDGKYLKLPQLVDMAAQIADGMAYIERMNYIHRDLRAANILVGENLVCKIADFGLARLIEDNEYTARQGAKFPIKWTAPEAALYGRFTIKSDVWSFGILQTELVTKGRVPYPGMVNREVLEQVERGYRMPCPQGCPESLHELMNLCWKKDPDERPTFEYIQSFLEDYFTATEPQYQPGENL
YES1, sequence (Q96SW2 whole entry partner): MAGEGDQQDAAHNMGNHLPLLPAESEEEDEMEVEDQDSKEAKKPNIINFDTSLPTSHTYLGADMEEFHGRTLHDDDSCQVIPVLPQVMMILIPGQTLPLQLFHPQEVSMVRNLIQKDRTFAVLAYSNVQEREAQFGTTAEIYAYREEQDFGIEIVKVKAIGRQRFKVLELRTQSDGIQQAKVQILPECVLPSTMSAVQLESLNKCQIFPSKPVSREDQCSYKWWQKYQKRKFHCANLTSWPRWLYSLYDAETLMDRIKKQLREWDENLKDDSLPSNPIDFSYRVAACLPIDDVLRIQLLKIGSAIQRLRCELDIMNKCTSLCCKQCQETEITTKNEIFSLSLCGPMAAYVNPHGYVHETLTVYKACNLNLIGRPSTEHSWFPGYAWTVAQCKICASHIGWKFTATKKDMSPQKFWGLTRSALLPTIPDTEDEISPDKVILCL
YES1, sequence (Q16531 2-1140 partner limits assumed): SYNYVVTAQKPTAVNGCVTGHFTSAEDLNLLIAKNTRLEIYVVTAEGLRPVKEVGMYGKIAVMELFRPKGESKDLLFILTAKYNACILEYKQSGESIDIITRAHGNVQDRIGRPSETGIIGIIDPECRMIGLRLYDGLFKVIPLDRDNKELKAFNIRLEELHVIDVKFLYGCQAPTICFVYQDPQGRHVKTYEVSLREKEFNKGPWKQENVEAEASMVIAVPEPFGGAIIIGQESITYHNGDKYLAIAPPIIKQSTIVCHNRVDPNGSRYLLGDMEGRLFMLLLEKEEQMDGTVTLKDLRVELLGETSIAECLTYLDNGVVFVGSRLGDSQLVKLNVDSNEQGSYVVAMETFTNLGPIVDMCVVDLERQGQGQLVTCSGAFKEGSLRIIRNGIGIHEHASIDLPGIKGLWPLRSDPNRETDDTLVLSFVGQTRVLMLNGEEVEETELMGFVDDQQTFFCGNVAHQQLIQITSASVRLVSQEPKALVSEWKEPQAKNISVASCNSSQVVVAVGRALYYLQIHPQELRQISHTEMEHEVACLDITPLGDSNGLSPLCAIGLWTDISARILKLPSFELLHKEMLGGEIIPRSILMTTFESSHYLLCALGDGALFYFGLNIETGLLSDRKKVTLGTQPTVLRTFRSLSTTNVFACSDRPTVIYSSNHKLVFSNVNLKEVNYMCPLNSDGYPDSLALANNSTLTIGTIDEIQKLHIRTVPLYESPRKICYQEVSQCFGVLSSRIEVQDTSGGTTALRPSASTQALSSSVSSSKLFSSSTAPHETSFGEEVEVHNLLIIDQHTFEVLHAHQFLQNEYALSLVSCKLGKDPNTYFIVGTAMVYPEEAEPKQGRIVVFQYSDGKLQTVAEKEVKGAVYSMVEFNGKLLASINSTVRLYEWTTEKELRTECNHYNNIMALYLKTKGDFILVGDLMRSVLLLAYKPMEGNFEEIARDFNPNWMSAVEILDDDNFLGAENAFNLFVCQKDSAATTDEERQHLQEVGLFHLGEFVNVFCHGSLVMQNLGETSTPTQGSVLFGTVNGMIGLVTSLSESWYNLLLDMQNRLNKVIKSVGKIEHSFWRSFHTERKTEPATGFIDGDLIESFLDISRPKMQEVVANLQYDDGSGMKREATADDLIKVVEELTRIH

IRAK1 = IRAK1 (Homo sapiens, UniProt P51617); type: cell-based; details: HEK293T cells, 1 μM, 5 h
IRAK1, sequence (P51617 whole entry): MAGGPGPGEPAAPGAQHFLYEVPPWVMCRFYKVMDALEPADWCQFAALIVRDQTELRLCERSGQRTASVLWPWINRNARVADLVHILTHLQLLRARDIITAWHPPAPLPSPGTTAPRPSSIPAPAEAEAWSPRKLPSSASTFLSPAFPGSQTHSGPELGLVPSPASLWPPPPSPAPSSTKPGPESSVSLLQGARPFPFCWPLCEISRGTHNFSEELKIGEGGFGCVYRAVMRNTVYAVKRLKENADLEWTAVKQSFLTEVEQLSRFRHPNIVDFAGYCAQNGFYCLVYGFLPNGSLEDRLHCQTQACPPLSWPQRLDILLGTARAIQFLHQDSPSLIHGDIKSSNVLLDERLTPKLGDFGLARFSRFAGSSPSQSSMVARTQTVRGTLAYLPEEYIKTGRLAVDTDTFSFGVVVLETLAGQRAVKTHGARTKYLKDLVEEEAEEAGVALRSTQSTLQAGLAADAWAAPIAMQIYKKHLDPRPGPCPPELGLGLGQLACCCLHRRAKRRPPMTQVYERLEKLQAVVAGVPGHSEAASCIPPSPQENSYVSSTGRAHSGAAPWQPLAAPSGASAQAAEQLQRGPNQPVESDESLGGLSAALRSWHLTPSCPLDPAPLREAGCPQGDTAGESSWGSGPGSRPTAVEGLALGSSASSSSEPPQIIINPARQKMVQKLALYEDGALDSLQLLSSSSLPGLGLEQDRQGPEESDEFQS
IRAK1, sequence (Q96SW2 whole entry partner): as the sequence (Q96SW2 whole entry partner) above
IRAK1, sequence (Q16531 2-1140 partner limits assumed): as the sequence (Q16531 2-1140 partner limits assumed) above

LYN = LYN (Homo sapiens, UniProt P07948); type: cell-based; details: HEK293T cells, 1 μM, 5 h
BUB1 = BUB1 (Homo sapiens, UniProt O43683); type: cell-based; details: MOLT-4 and MM.1S cell lines
FLAG-tagged CRBN = FLAG-tagged CRBN (Homo sapiens, UniProt Q96SW2); test: FLAG-CRBN AP-MS, proteins enriched with CRBN; type: cell-based; details: HEK293T cells, 1 μM, 5 h, relative to SB1-G-187 and WH-10417–099
FLAG-tagged CRBN, sequence (Q96SW2 whole entry): as the sequence (Q96SW2 whole entry partner) above
FLAG-tagged CRBN, sequence (Q16531 2-1140 partner limits assumed): as the sequence (Q16531 2-1140 partner limits assumed) above

MOLT-4 cells = test: Time-course RNA-sequencing; type: cell-based, human; details: for transcript levels: 1 μM
AURKA (Aurora A) = biological target: T2, AURKA (Aurora A) (Homo sapiens, UniProt O14965); test: Global quantitative proteomics and immunoblot, degradation of AURKA; type: cell-based; details: MOLT-4 cells 1 μM 5 h proteomics; validated by immunoblotting in MM.1S cells
T2 sequence (O14965 1-403): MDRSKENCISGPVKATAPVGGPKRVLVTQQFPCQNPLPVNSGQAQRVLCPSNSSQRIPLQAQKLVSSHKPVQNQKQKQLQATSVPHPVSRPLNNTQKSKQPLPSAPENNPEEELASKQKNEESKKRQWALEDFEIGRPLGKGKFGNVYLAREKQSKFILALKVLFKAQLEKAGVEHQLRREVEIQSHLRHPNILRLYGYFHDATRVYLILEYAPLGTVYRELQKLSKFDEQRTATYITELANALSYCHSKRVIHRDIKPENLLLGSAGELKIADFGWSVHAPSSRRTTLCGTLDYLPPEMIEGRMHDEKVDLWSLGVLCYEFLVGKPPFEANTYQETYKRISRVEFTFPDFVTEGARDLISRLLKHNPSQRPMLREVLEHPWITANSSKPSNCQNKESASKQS

[3] = tested on: MM.1S multiple myeloma cell line; test: CellTiter-Glo viability assay; type: cell-based, human; details: MM.1S cells, 72 h, compared with parental inhibitor alisertib

CDK17, sequence (Q00537 whole entry): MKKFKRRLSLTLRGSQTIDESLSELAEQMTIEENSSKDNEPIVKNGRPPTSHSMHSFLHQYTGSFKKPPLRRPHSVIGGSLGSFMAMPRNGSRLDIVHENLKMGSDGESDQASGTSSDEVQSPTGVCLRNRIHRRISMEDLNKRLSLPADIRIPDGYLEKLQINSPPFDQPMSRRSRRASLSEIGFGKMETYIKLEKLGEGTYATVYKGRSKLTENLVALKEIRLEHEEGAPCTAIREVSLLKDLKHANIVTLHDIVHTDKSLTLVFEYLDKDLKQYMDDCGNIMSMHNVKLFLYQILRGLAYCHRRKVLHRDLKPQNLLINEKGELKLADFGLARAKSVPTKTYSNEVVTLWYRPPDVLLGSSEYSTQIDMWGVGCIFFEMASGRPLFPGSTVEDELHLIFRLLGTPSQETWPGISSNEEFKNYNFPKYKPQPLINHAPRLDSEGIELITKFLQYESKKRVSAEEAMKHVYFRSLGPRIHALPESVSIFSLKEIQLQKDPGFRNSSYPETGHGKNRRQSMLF
CSK, sequence (P41240 whole entry): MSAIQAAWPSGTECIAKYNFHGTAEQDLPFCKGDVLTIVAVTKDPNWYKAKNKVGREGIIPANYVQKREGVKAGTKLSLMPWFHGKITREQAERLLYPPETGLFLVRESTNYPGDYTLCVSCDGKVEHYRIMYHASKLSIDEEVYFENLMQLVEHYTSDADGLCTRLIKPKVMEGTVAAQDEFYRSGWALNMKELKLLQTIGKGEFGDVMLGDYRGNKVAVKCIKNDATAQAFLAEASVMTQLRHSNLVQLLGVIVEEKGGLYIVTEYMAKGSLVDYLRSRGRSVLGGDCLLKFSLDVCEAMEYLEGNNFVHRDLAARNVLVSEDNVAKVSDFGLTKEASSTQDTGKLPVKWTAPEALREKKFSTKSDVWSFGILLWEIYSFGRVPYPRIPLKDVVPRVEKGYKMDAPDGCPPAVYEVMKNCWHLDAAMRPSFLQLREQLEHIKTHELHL

Cc1nc(Nc2ncc(C(=O)Nc3c(C)cccc3Cl)s2)cc(N2CCN(CC(=O)NCCCCNC(=O)COc3cccc4c3C(=O)N(C3CCC(=O)NC3=O)C4=O)CC2)n1 (stereo not shown) [DB-3-291]
selectivity among CSK-degrading compounds (CSK): greatest selectivity | degradation of CSK (CSK; compared with the 15 library compounds that target CSK): strongest degradation

Cc1ncsc1-c1ccc([C@H](C)NC(=O)[C@@H]2C[C@@H](O)CN2C(=O)[C@@H](NC(=O)CCOCCOCCNc2nccc(-c3sc(C(C)(C)C)nc3-c3cccc(NS(=O)(=O)c4c(F)cccc4F)c3F)n2)C(C)(C)C)cc1 [DD-03–156]
degradation of CDK17 (CDK17): potent and selective degradation; also recorded: exquisite | degradation of LIMK2 (LIMK2): potent and selective degradation

Cc1ccc(C(=O)Nc2ccc(CN3CCN(CCCOCCOCCOCCNC(=O)COc4cccc5c4C(=O)N(C4CCC(=O)NC4=O)C5=O)CC3)c(C(F)(F)F)c2)cc1C#Cc1cnc2cccnn12 (stereo not shown) [SB1-G-187]
degradation of GCK (GCK [1]): degraded | GCK engagement, inhibition of probe binding (GCK [2]): 94 %I | YES1 complex formation with CRBN and degradation (YES1): complex formation and degradation | IRAK1 complex formation with CRBN and degradation (IRAK1): complex formation and degradation | LYN complex formation with CRBN and degradation (LYN): complex formation and degradation

CC(C)S(=O)(=O)c1ccccc1Nc1nc(Nc2ccc(N3CCN(CCOCCNC(=O)CNc4cccc5c4C(=O)N(C4CCC(=O)NC4=O)C5=O)CC3)cc2)ncc1Cl (stereo not shown) [SK-3–91]
degradation of GCK (GCK [1]): not degraded | GCK engagement, inhibition of probe binding (GCK [2]): 50 %I | YES1 complex formation with CRBN and degradation (YES1): complex formation does not predict degradation | degradation of BUB1 (BUB1): degraded | enriched proteins in the CRBN AP-MS (FLAG-tagged CRBN): fewer enriched proteins | transcript levels (MOLT-4 cells; 8 and 12 h time points): complete transcriptional collapse | transcript levels (MOLT-4 cells; up until the 4 h time point): largely unchanged | transcriptional changes of CAMKK2, DNAPK, IKKe and JAK2 (MOLT-4 cells; 4 h treatment): no upregulation

COc1cc(Nc2ncc3c(n2)-c2ccc(Cl)cc2C(c2c(F)cccc2OC)=NC3)ccc1C(=O)NCCCOCCOCCOCCCNC(=O)COc1cccc2c1C(=O)N(C1CCC(=O)NC1=O)C2=O (stereo not shown) [dAURK-4]
degradation of AURKA (AURKA (Aurora A)): potent and selective degradation | antiproliferative effects [3]: superior antiproliferative effects
